According to patent US20140147860A1, “Acoustic Cytometry Methods and Protocols” (LIFE TECHNOLOGIES CORPORATION, priority 2011, published 2014):

How the values were obtained:
S. aureus cells = assay: Relative membrane potential in an S. aureus culture, BacLight Bacterial Membrane Potential Kit (DiOC2), flow cytometry; format: cell-based, Staphylococcus aureus; settings: SYTOX Blue-positive dead cells excluded, data not shown
[1] = tested on: Jurkat cells (T-cell leukemia, human); assay: Apoptosis detection with the Annexin V Dead Cell Apoptosis Kit by acoustic flow cytometry; format: cell-based; settings: 10 μM camptothecin for 4 hr, Annexin V staining, 488 nm excitation
Source text: Apoptotic plasma membrane assays for flow cytometry: Some of the earliest detectable apoptotic events involve the plasma membrane, including changes in membrane asymmetry and permeability. In addition to annexin V conjugates, Life Technologies provides unique assays to measure membrane changes under conditions where annexin V binding is problematic, such as in adherent cells, and without using special buffers. Annexin V conjugates In apoptotic cells, phosphatidylserine (PS) is translocated from the inner to the outer leaflet of the plasma membrane, thus exposing PS to the external cellular environment. Annexin V labeled with a fluorophore can identify apoptotic cells by binding to PS exposed on the outer leaflet of the membrane. The Alexa Fluor® series of dyes, used in Life Technologies Annexin V Dead Cell Apoptosis Kits provides brighter and more photostable bioconjugates than other organic dyes with similar spectral characteristics. Apoptosis detection with the Annexin V Dead Cell Apoptosis Kit. Jurkat cells (T-cell leukemia, human) treated with 10 μM camptothecin for 4 hr (B) or untreated control (A). Cells were stained using the Annexin V Dead Cell Apoptosis Kit and analyzed by flow cytometry with 488 nm excitation on the Attune® Acoustic Focusing Cytometer with 530/30 Xnm and 575/24 nm bandpass filters. Data were acquired with a standard 100 XμL/min collection rate. […]

SMILES | red-shifted DiOC2 fluorescence (membrane potential), treated versus untreated sample (S. aureus cells) | percentage of apoptotic cells versus untreated control [1]
N#CC(C#N)=NNc1cccc(Cl)c1 [CCCP, carbonylcyanide 3-chlorophenylhydrazone] | increased red-shifted DiOC2 fluorescence in the untreated sample (−CCCP, green) as compared to the CCCP-treated sample | 
CC[C@@]1(O)C(=O)OCc2c1cc1n(c2=O)Cc2cc3ccccc3nc2-1 [camptothecin] |  | higher percentage of apoptotic cells
